Converted amounts (≈) assume the structure as drawn. Where two headings read alike, the source gives them in different places.
Key:
Experiment in all cases: MIC (Minimum Inhibitory Concentration)
Assay type in all cases: cell-based
Pasteurella multocida = conditions: Pasteurella multocida, read-out: MIC values
Source text: (§1) In addition they may be used for combatting plant diseases, in particular as fungicides. A list of MIC (Minimum Inhibitory Concentration) values for a number of microorganisms is listed herebelow. The figures in the column headings refer to the compounds prepared according to the experimental examples in comparison with the spectrum of 1-[2-(2,4-dichlorophenyl)-2-{(2,4-dichlorophenyl)-methoxy} -ethyl7-1H-imidazole (better known under the name of miconazole, c.f. Merck Index 9th Ed. page 6047) or natamycin (pimaricin, c.f. Merck Index 9th Ed. page 7233).

Trichophyton quickeaneum = conditions: Trichophyton, read-out: MIC values
Source text: as §1

[1] = system: Streptococcus haemolyticus; conditions: Streptococcus, read-out: MIC values
Source text: as §1

Candida albicans = system: Candida albicans
Source text: as §1

Trichophyton tonsurans = conditions: Trichophyton tonsurans, read-out: MIC values
Source text: as §1

Trichophyton rubrum = system: Trichophyton rubrum
Source text: as §1

Trichophyton equinum = system: Trichophyton equinum
Source text: as §1

Trichophyton verrucosum = system: Trichophyton verrucosum
Source text: as §1

[2] = system: Trichophyton schoenleinii; conditions: Trichophyton schoenleinii, read-out: MIC values
Source text: as §1

[3] = system: Trichophyton mentagrophytus
Source text: as §1

Trichophyton violoceum = conditions: Trichophyton, read-out: MIC values
Source text: as §1

[4] = read-out: MIC values, Candida albicans A 7
[5] = read-out: MIC values, Candida albicans A 3140
[6] = read-out: MIC values, Candida albicans A 3141
[7] = read-out: MIC values, Candida albicans A 3142
[8] = read-out: MIC values, Candida albicans A 3143
[9] = read-out: MIC values, Candida albicans A 3144
[10] = read-out: MIC values, Candida albicans A 3145
[11] = read-out: MIC values, Candida albicans A 3165
[12] = read-out: MIC values, Candida albicans A 3166
[13] = read-out: MIC values, Candida albicans A 3167
[14] = read-out: MIC values, Candida albicans A 3168
[15] = read-out: MIC values, Candida albicans A 3169
[16] = read-out: MIC values, Candida albicans A 3171
[17] = read-out: MIC values, Candida albicans A 3184
[18] = read-out: MIC values, Candida albicans A 3190
[19] = read-out: MIC values, Candida albicans A 3191
[20] = read-out: MIC values, Candida albicans A 3192
[21] = read-out: MIC values, Candida albicans A 3194
[22] = read-out: MIC values, Candida albicans A 3196
[23] = read-out: MIC values, Trichophyton rubrum 218-65
[24] = read-out: MIC values, Trichophyton rubrum 494-62
[25] = read-out: MIC values, Trichophyton rubrum A 810
[26] = read-out: MIC values, Trichophyton equinum 182-76
[27] = read-out: MIC values, Trichophyton equinum 441-51
[28] = read-out: MIC values, Trichophyton verrucosum 134-66
[29] = read-out: MIC values, Trichophyton verrucosum A 2922
[30] = read-out: MIC values, Trichophyton mentagrophytus 367-68
[31] = read-out: MIC values, Trichophyton mentagrophytus 421-67
[32] = read-out: MIC values, Trichophyton mentagrophytus A 3252
[33] = read-out: MIC values, Trichophyton mentagrophytus R 177
[34] = read-out: MIC values, Trichophyton mentagrophytus R 178

SMILES | MIC (Pasteurella multocida) | MIC (Trichophyton quickeaneum) | MIC [1] | MIC (Candida albicans; [4]) | MIC (Candida albicans; [5]) | MIC (Candida albicans; [6]) | MIC (Candida albicans; [7]) | MIC (Candida albicans; [8]) | MIC (Candida albicans; [9]) | MIC (Candida albicans; [10]) | MIC (Candida albicans; [11]) | MIC (Candida albicans; [12]) | MIC (Candida albicans; [13]) | MIC (Candida albicans; [14]) | MIC (Candida albicans; [15]) | MIC (Candida albicans; [16]) | MIC (Candida albicans; [17]) | MIC (Candida albicans; [18]) | MIC (Candida albicans; [19]) | MIC (Candida albicans; [20]) | further results
[C-]#[N+]C(C1=CCCCCCC1)S(=O)(=O)c1ccc(C)cc1 (stereo not drawn) [Example 20, α-(cycloocten-1-yl)-α-(4-toluenesulphonyl) methylisocyanide] | 50 µg/mL (≈ 165 µM) | 25 µg/mL (≈ 82.4 µM) | 12.5 µg/mL (≈ 41.2 µM) | 6 µg/mL (≈ 19.8 µM) | 6 µg/mL (≈ 19.8 µM) | 6 µg/mL (≈ 19.8 µM) | 6 µg/mL (≈ 19.8 µM) | 6 µg/mL (≈ 19.8 µM) | 6 µg/mL (≈ 19.8 µM) | 6 µg/mL (≈ 19.8 µM) | 6 µg/mL (≈ 19.8 µM) | 6 µg/mL (≈ 19.8 µM) | 6 µg/mL (≈ 19.8 µM) | 6 µg/mL (≈ 19.8 µM) | 6 µg/mL (≈ 19.8 µM) | 6 µg/mL (≈ 19.8 µM) | 6 µg/mL (≈ 19.8 µM) | 6 µg/mL (≈ 19.8 µM) | 6 µg/mL (≈ 19.8 µM) | 6 µg/mL (≈ 19.8 µM) | MIC (Candida albicans; [21]): 3 µg/mL (≈ 9.89 µM); MIC (Candida albicans; [22]): 6 µg/mL (≈ 19.8 µM); MIC (Trichophyton tonsurans): 0.75 µg/mL (≈ 2.47 µM); MIC (Trichophyton rubrum; [23]): 12.5 µg/mL (≈ 41.2 µM); MIC (Trichophyton rubrum; [24]): 12.5 µg/mL (≈ 41.2 µM); MIC (Trichophyton rubrum; [25]): 100 µg/mL (≈ 330 µM); MIC (Trichophyton equinum; [26]): 50 µg/mL (≈ 165 µM); MIC (Trichophyton equinum; [27]): 12.5 µg/mL (≈ 41.2 µM); MIC (Trichophyton verrucosum; [28]): 6 µg/mL (≈ 19.8 µM); MIC (Trichophyton verrucosum; [29]): 6 µg/mL (≈ 19.8 µM); MIC [2]: 12.5 µg/mL (≈ 41.2 µM); MIC [3, 30]: 50 µg/mL (≈ 165 µM); MIC [3, 31]: 100 µg/mL (≈ 330 µM); MIC [3, 32]: 25 µg/mL (≈ 82.4 µM); MIC [3, 33]: 50 µg/mL (≈ 165 µM); MIC [3, 34]: > 100 µg/mL; MIC (Trichophyton violoceum): 12.5 µg/mL (≈ 41.2 µM)
[C-]#[N+]C(=C1CCSCC1)S(=O)(=O)c1ccc(C)cc1 [Example 16a, a-(thian-4-ylidene)-a-(4-toluenesulphonyl)-methylisocyanide] | 6 µg/mL (≈ 20.4 µM) | 12.5 µg/mL (≈ 42.6 µM) | 25 µg/mL (≈ 85.2 µM) | 6 µg/mL (≈ 20.4 µM) | 6 µg/mL (≈ 20.4 µM) | 6 µg/mL (≈ 20.4 µM) | 6 µg/mL (≈ 20.4 µM) | 12.5 µg/mL (≈ 42.6 µM) | 12.5 µg/mL (≈ 42.6 µM) | 12.5 µg/mL (≈ 42.6 µM) | 6 µg/mL (≈ 20.4 µM) | 3 µg/mL (≈ 10.2 µM) | 3 µg/mL (≈ 10.2 µM) | 3 µg/mL (≈ 10.2 µM) | 12.5 µg/mL (≈ 42.6 µM) | 6 µg/mL (≈ 20.4 µM) | 12.5 µg/mL (≈ 42.6 µM) | 25 µg/mL (≈ 85.2 µM) | 25 µg/mL (≈ 85.2 µM) | 25 µg/mL (≈ 85.2 µM) | MIC (Candida albicans; [21]): 25 µg/mL (≈ 85.2 µM); MIC (Candida albicans; [22]): 25 µg/mL (≈ 85.2 µM); MIC (Trichophyton tonsurans): 0.4 µg/mL (≈ 1.36 µM); MIC (Trichophyton rubrum; [23]): 6 µg/mL (≈ 20.4 µM); MIC (Trichophyton rubrum; [24]): 25 µg/mL (≈ 85.2 µM); MIC (Trichophyton rubrum; [25]): 3 µg/mL (≈ 10.2 µM); MIC (Trichophyton equinum; [26]): 25 µg/mL (≈ 85.2 µM); MIC (Trichophyton equinum; [27]): 3 µg/mL (≈ 10.2 µM); MIC (Trichophyton verrucosum; [28]): 3 µg/mL (≈ 10.2 µM); MIC (Trichophyton verrucosum; [29]): 1.5 µg/mL (≈ 5.11 µM); MIC [2]: 6 µg/mL (≈ 20.4 µM); MIC [3, 30]: 25 µg/mL (≈ 85.2 µM); MIC [3, 31]: 50 µg/mL (≈ 170 µM); MIC [3, 32]: 25 µg/mL (≈ 85.2 µM); MIC [3, 33]: 12.5 µg/mL (≈ 42.6 µM); MIC [3, 34]: 100 µg/mL (≈ 341 µM); MIC (Trichophyton violoceum): 6 µg/mL (≈ 20.4 µM)

— patent EP0007672A1, “Isocyanoalkenes, process and useful intermediates for their preparation, pharmaceutical and fungicidal preparations containing those isocyanoalkenes and the use of the fungicidal preparations in agriculture” (GIST-BROCADES N.V., priority 1978, dated 1980)
